Test results from patent publication US8299056B2 (Signal Pharmaceuticals, LLC, priority 2008, dated 2012).
pIC50: −log10 of the molar value.

What follows are molecules tested against T1, Syk (Homo sapiens, UniProt P43405) (assay: Syk HTRF assay). Conditions: IC50 activity level, read-out: Activity Level.
T1 construct: purchased Carna Biosciences
Format: biochemical
Procedure, shortened: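 Read-out is the 665 nm/615 nm time-resolved fluorescence ratio after EDTA stop and Eu-anti-phosphotyrosine plus streptavidin-DyLight 647 detection. Reaction ran 1 h at room temperature with start mix of 87.5 μM ATP and 80 nM substrate peptide in pH 7.6 HEPES/MgCl2 buffer.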
In the case of `O[C@H]1CC[C@@H](Nc2cccc3nc(Nc4ccc(C(F)(F)F)cc4)nn23)CC1` [Example 453, cis-4-(2-(4-(trifluoromethyl)phenylamino)-[1,2,4]triazolo[1,5-a]pyridin-5-ylamino)cyclohexanol], the pIC50 was 6.60 to 11.30.
`CNCc1nc2ccc(-c3cccc4nc(Nc5ccc(C(F)(F)F)cc5)nn34)cc2[nH]1` [Example 440, 5-(2-((methylamino)methyl)-1H-benzo[d]imidazol-6-yl)-N-(4-(trifluoromethyl)phenyl)-[1,2,4]triazolo[1,5-a]pyridin-2-amine] gave a pIC50 of 6.60 to 11.30.
For `Cc1cc(Nc2nc3cccc(N[C@H]4CC[C@@H](O)CC4)n3n2)cc2c1CC(=O)N2C` [Example 556], the pIC50 was 6.60 to 11.30.
For `O[C@H]1CC[C@@H](Nc2cccc3nc(Nc4ccc(C(F)(F)F)cc4)nn23)C1` (stereo in doubt) [Example 418, (1S,3R)-3-(2-(4-(trifluoromethyl)phenylamino)-[1,2,4]triazolo[1,5-a]pyridin-5-ylamino)cyclopentanol], the pIC50 was 6.60 to 11.30.
With `NC(=O)[C@H]1CC[C@@H](Nc2cccc3nc(Nc4ccccc4)nn23)CC1` [Example 519, cis-4-(2-(phenylamino)-[1,2,4]triazolo[1,5-a]pyrridin-5-ylamino)cyclohexanecarboxamide] the pIC50 was 5.00 to 6.00.
With `c1cc(CC2CCOCC2)n2nc(Nc3ccc(-c4nc[nH]n4)cc3)nc2c1` [Example 557, N-(4-(1H-1,2,4-triazolo-3-yl)phenyl)-5-((tetrahydro-2H-pyran-4-yl)methyl)-[1,2,4]triazolo[1,5-a]pyridin-2-amine] the pIC50 was 6.00 to 6.30.
With `CC(Cc1cccc2nc(Nc3ccccc3)nn12)C(N)=O` (stereo in doubt) [Example 461, (S)-2-methyl-3-(2-(phenylamino)-[1,2,4]triazolo[1,5-a]pyridin-5-yl)propanamide] the pIC50 was 5.00 to 6.00.
Work on `CC(C)C(=O)Nc1cccc2nc(Nc3ccccc3)nn12` [Example 526, N-(2-(phenylamino)-[1,2,4]triazolo[1,5-a]pyridin-5-yl)isobutyramide] yielded a pIC50 of 5.00 to 6.00.
`CNC(=O)c1ccc(Nc2nc3cccc(-c4ccc5nn[nH]c5c4)n3n2)cc1` [Example 432, 4-(5-(1H-benzo[d][1,2,3]triazol-6-yl)-[1,2,4]triazolo[1,5-a]pyridin-2-ylamino)-N-methylbenzamide] gave a pIC50 of 6.60 to 11.30.

Same assay, conditions: activity levels A-D, read-out: Activity Level (IC50 in the Syk HTRF assay)
`O=C1NCc2cc(Nc3nc4cccc(N[C@H]5CC[C@@H](O)CC5)n4n3)ccc21` [Example 253, cis-5-(5-(4-hydroxycyclohexylamino)-[1,2,4]triazolo[1,5-a]pyridin-2-ylamino)isoindolin-1-one] gave a pIC50 of 6.60 to 11.30.
`C[C@]1(O)CC[C@H](Nc2cccc3nc(Nc4ccc(C(F)(F)F)cc4)nn23)CC1` [Example 384, cis-1-methyl-4-(2-(4-(trifluoromethyl)phenylamino)-[1,2,4]triazolo[1,5-a]pyridin-5-ylamino)cyclohexanol] was tested, and the pIC50 was 6.60 to 11.30.
Molecule `CNC(=O)c1ccc(Nc2nc3cccc(N4CC[C@H](O)C4)n3n2)cc1` [Example 249, (S)-4-(5-(3-hydroxypyrrolidin-1-yl)-[1,2,4]triazolo[1,5-a]pyridin-2-ylamino)-N-methylbenzamide] has a pIC50 of 6.00 to 6.30.
Molecule `COCc1n[nH]c2cc(Nc3nc4cccc(N[C@H]5CC[C@@H](O)CC5)n4n3)ccc12` [Example 231, cis-4-(2-(3-(methoxymethyl)-1H-indazol-6-ylamino)-[1,2,4]triazolo[1,5-a]pyridin-5-ylamino)cyclohexanol] has a pIC50 of 6.60 to 11.30.
Work on `NC(=O)c1ccc(Nc2nc3cccc(N[C@H]4CC[C@@H](O)CC4)n3n2)c(F)c1` [Example 340, cis-3-fluoro-4-(5-(4-hydroxycyclohexylamino)-[1,2,4]triazolo[1,5-a]pyridin-2-ylamino)benzamide] yielded a pIC50 of 5.00 to 6.00.
In the case of `CNC(=O)c1ccc(Nc2nc3cccc(CC4CCNCC4)n3n2)cc1` [Example 276], the pIC50 was 6.60 to 11.30.
Work on `Cc1n[nH]c2cc(Nc3nc4cccc(N[C@H]5CC[C@H](O)CC5)n4n3)ccc12` (stereo in doubt) [Example 201, trans-4-(2-(3-methyl-1H-indazol-6-ylamino)-[1,2,4]triazolo[1,5-a]pyridin-5-ylamino)cyclohexanol] yielded a pIC50 of 6.60 to 11.30.
With `FC(F)(F)c1ccc(Nc2nc3cccc(O[C@H]4CCCNC4)n3n2)cc1` [Example 362, (S)-5-(piperidin-3-yloxy)-N-(4-(trifluoromethyl)phenyl)-[1,2,4]triazolo[1,5-a]pyridin-2-amine] the pIC50 was 5.00 to 6.00.
`Cc1cc(Nc2nc3cccc(N[C@H]4CC[C@@H](O)CC4)n3n2)cc(C)c1F` [Example 279, cis-4-(2-(4-fluoro-3,5-dimethylphenylamino)-[1,2,4]triazolo[1,5-a]pyridin-5-ylamino)cyclohexanol] gave a pIC50 of 6.60 to 11.30.
Work on `OC[C@@H]1CCCN1Cc1cccc2nc(Nc3ccc(C(F)(F)F)cc3)nn12` [Example 271, (S)-(1-((2-(4-(trifluoromethyl)phenylamino)-[1,2,4]triazolo[1,5-a]pyridin-5-yl)methyl)pyrrolidin-2-yl)methanol] yielded a pIC50 of 5.00 to 6.00.
`O[C@H]1CC[C@@H](Nc2cccc3nc(Nc4cccnc4F)nn23)CC1` [Example 322, cis-4-(2-(2-fluoropyridin-3-ylamino)-[1,2,4]triazolo[1,5-a]pyridin-5-ylamino)cyclohexanol] was tested, and the pIC50 was 5.00 to 6.00.
In the case of `COc1cncc(Nc2nc3cccc(N[C@H]4CC[C@@H](O)CC4)n3n2)c1` [Example 368, cis-4-(2-(5-methoxypyridin-3-ylamino)-[1,2,4]triazolo[1,5-a]pyridin-5-ylamino)cyclohexanol], the pIC50 was 6.00 to 6.30.
`O[C@H]1CCC[C@H](Nc2cccc3nc(Nc4ccc(C(F)(F)F)cc4)nn23)C1` (racemic) [Example 248, (±)-trans-3-(2-(4-(trifluoromethyl)phenylamino)-[1,2,4]triazolo[1,5-a]pyridin-5-ylamino)cyclohexanol] was tested, and the pIC50 was 6.60 to 11.30.
`Cc1n[nH]c2cc(Nc3nc4cccc(C[C@H]5CC[C@@H](O)CC5)n4n3)ccc12` [Example 239, cis-4-((2-(3-methyl-1H-indazol-6-ylamino)-[1,2,4]triazolo[1,5-a]pyridin-5-yl)methyl)cyclohexanol] gave a pIC50 of 6.60 to 11.30.
For `FC(F)(F)c1ccc(Nc2nc3cccc(CN4CCNCC4)n3n2)cc1` [Example 393, 5-(piperazin-1-ylmethyl)-N-(4-(trifluoromethyl)phenyl)-[1,2,4]triazolo[1,5-a]pyridin-2-amine], the pIC50 was 6.60 to 11.30.
`Cc1n[nH]c2cc(Nc3nc4cccc(CN5CCN(c6ccc7c(C)n[nH]c7c6)C(=O)C5)n4n3)ccc12` [Example 234, 1-(3-methyl-1H-indazol-6-yl)-4-((2-(3-methyl-1H-indazol-6-ylamino)-[1,2,4]triazolo[1,5-a]pyridin-5-yl)methyl)piperazin-2-one] gave a pIC50 of 5.00 to 6.00.
`FC(F)(F)c1ccc(Nc2nc3cccc(OC[C@@H]4CCCN4)n3n2)cc1` [Example 303, (S)-5-(pyrrolidin-2-ylmethoxy)-N-(4-(trifluoromethyl)phenyl)-[1,2,4]triazolo[1,5-a]pyridin-2-amine] showed a pIC50 of 5.00 to 6.00.
`CNC(=O)c1ccc(Nc2nc3cccc(CCC4CCNCC4)n3n2)cc1` [Example 254, N-methyl-4-(5-(2-(piperidin-4-yl)ethyl)-[1,2,4]triazolo[1,5-a]pyridin-2-ylamino)benzamide] showed a pIC50 of 6.00 to 6.30.
`Cc1cc(C)cc(Nc2nc3cccc(N[C@H]4CC[C@@H](O)CC4)n3n2)c1` [Example 314, cis-4-(2-(3,5-dimethylphenylamino)-[1,2,4]triazolo[1,5-a]pyridin-5-ylamino0)cyclohexaol] was tested, and the pIC50 was 6.60 to 11.30.
With `CNC(=O)c1ccc(Nc2nc3cccc(N[C@H]4CC[C@@H](N)CC4)n3n2)cc1` [Example 360, 4-(5-(cis-4-aminocyclohexylamino)-[1,2,4]triazolo[1,5-a]pyridin-2-ylamino)-N-methylbenzamide] the pIC50 was 6.00 to 6.30.
`CC(c1cccc2nc(Nc3ccc(C(F)(F)F)cc3)nn12)N1CCNC(=O)C1` (stereo not drawn) [Example 263, 4-(1-(2-(4-(trifluoromethyl)phenylamino)-[1,2,4]triazolo[1,5-a]pyridin-5-yl)ethyl)piperazin-2-one] was tested, and the pIC50 was 6.60 to 11.30.
`CC(C)C1CNC(=O)CN1Cc1cccc2nc(Nc3ccc(C(F)(F)F)cc3)nn12` (racemic) [Example 230, (±)-5-isopropyl-4-((2-(4-(trifluoromethyl)phenylamino)-[1,2,4]triazolo[1,5-a]pyridin-5-yl)methyl)piperazin-2-one] was tested, and the pIC50 was 5.00 to 6.00.

Same assay, conditions: read-out: Activity Level (Syk HTRF assay IC50)
Work on `c1ccc(-c2cccc3nc(Nc4ccc5nn[nH]c5c4)nn23)cc1` [compound 49, N-(5-phenyl-[1,2,4]triazolo[1,5-a]pyridin-2-yl)-1H-benzo[d][1,2,3]triazol-6-amine] yielded a pIC50 of 6.60 to 11.30.
Work on `c1ccc(-c2cccc3nc(Nc4ccc5c(NC6CCNCC6)n[nH]c5c4)nn23)cc1` [compound 23] yielded a pIC50 of 6.60 to 11.30.
`Cc1n[nH]c2cc(Nc3nc4cccc(NC[C@@H]5CC[C@H](O)C5)n4n3)ccc12` [Example 178, (1S,3R)-3-((2-(3-methyl-1H-indazol-6-ylamino)-[1,2,4]triazolo[1,5-a]pyridin-5-ylamino)methyl)cyclopentanol] showed a pIC50 of 6.60 to 11.30.
For `CC(=O)Nc1ccc(-c2cccc3nc(Nc4ccccc4)nn23)cc1` [compound 79, N-(4-(2-(phenylamino)-[1,2,4]triazolo[1,5-a]pyridin-5-yl)phenyl)acetamide], the pIC50 was 6.30 to 6.60.
`Nc1cccc(-c2cccc3nc(Nc4ccccc4)nn23)c1` [Example 87] was tested, and the pIC50 was 6.60 to 11.30.
For `N#Cc1ccc(-c2cccc3nc(Nc4ccccc4)nn23)cc1` [compound 76, 4-(2-(phenylamino)-[1,2,4]triazolo[1,5-a]pyridin-5-yl)benzonitrile], the pIC50 was 5.00 to 6.00.
Molecule `CN1C(=O)C(C)(C)c2ccc(Nc3nc4cccc(CC5CCOCC5)n4n3)cc21` [Example 143, 1,3,3-trimethyl-6-(5-((tetrahydro-2H-pyran-4-yl)methyl)-[1,2,4]triazolo[1,5-a]pyridin-2-ylamino)indolin-2-one] has a pIC50 of 6.60 to 11.30.
`c1ccc(-c2cccc3nc(Nc4ccncc4)nn23)cc1` [compound 58, 5-phenyl-N-(pyridin-4-yl)-[1,2,4]triazolo[1,5-a]pyridin-2-amine] showed a pIC50 of 6.00 to 6.30.
